# PMC10321317 (Genome Biology and Evolution, 2023)
# “Also recorded” adds a separate entry of the source. Square brackets hold non-standard residues; d marks the D form. Ends that are not written are not given here. Peptide text beside a SMILES is read from it. pGlu = O=C1CC[C@@H](C(=O)O)N1
# Assays:
# [1] = molecular target: T1, B. floridae GnRHR2 (Branchiostoma floridae, UniProt C0IP20); experiment: Luminescence response in HEK293-G5a cells expressing B. floridae GnRHR2 (with Gαqi9); assay type: cell-based
# T1 sequence (C0IP20 1-397): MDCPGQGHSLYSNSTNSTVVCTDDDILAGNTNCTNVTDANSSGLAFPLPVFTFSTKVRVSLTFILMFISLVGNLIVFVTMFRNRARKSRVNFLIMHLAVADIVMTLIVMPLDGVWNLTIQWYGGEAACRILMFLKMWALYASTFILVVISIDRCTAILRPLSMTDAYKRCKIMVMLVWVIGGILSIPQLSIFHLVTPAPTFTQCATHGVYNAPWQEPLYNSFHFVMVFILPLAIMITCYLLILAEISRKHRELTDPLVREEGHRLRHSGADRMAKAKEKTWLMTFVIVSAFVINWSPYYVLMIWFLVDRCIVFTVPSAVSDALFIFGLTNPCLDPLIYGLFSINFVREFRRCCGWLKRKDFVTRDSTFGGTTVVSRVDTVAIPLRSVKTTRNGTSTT
# Excerpt: (§1) For this purpose, we expressed individual receptors in a heterologous expression system comprising human embryo kidney 293 cells (HEK293-G5a) cells and monitored luminescence responses to three synthetic peptides.
# (§2) Five millimoles of stock solutions of all peptides were first prepared in 50% Dimethyl sulfoxide. […] These receptors were codon-optimized for mammalian cell lines, synthesized and cloned into pcDNA3.4(+) vector by Genscript synthesis services. A 5′ partial Kozak translation initiation sequence (CCACC) was also included to improve expression. The codon-optimized receptor sequences are provided in supplementary file 9, Supplementary Material online. HEK293-G5a (Angio-proteomie CAT no. cAP-0200GFP-AEQ-Cyto) cells were cultured in 96 well-plates containing 100 μl of Dublecco’s Modified Eagle medium (DMEM; Thermo; Cat. No. 10566016) supplemented with 10% foetal bovine serum (Thermo; Cat. No. 10082147). The plates were kept in an incubator at 37°C and 5% CO2. Upon reaching 85% confluency, cells were co-transfected with plasmids encoding individual receptors or the empty pcDNA3.1 + vector (control), and the Gαqi9 promiscuous protein [Addgene; Cat. No. 125711 {[Masharina et al. 2012]}], as described previously ([Yañez-Guerra et al. 2022]). Transfections were carried out with 60 ng of each plasmid and 0.45 μl of the transfection reagent Transfectamine 5,000 (AAT-bioquest; Cat. No. 60022) per well. Two days post-transfection, the media was replaced with fresh DMEM medium supplemented with […] coelenterazine-H (Thermo Fisher Scientific; Cat. No. C6780). The cells were incubated for 2 h and then used for the luminescence assay. Various concentrations of the three synthetic peptides ranging from 10^−4 M to 10^−12 M were prepared in DMEM media and tested on the cells. Luminescence levels were recorded and integrated over a 65-s measurement period in a FlexStation 3 Multi-Mode Microplate Reader (Molecular Devices). A minimum of two independent transfections (biological replicates) for each receptor and two–three technical replicates for each peptide concentration were performed. […]
# [2] = molecular target: one of the two CRZ-like receptors; design: method as in Roch, Tello, et al. 2014; conditions: ref Roch, Tello, et al. 2014; cited from earlier work
# [3] = molecular target: T2, B. floridae CRZR1 (Branchiostoma floridae, UniProt C0IP22); experiment: Luminescence response in HEK293-G5a cells expressing B. floridae CRZR1 (with Gαqi9); assay type: cell-based
# T2 sequence (C0IP22 1-831): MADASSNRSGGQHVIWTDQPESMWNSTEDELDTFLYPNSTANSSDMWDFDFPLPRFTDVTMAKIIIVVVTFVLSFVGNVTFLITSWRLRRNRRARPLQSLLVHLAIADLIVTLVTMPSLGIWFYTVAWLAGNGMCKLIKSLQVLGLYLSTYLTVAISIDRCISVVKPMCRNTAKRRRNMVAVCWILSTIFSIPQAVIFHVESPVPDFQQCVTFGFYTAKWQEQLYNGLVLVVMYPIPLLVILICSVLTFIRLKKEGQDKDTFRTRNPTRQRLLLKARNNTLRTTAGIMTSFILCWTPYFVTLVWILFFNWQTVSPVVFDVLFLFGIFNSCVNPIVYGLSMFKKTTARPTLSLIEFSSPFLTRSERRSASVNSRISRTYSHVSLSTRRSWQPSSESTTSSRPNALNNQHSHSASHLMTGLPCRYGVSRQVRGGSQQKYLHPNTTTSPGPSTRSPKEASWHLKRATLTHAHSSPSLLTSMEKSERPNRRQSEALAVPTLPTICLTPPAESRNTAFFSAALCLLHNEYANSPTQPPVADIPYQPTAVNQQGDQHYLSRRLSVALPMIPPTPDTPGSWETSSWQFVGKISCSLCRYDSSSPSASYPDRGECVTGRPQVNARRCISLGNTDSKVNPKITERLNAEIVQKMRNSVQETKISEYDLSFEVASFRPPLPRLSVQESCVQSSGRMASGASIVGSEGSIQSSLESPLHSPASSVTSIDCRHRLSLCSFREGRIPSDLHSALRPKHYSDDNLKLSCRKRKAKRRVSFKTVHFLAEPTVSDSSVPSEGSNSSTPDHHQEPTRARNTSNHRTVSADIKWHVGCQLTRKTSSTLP
# Excerpt: as §1, §2
# [4] = molecular target: T3, B. floridae CRZR2 (Branchiostoma floridae, UniProt C4N9P5); experiment: Luminescence response in HEK293-G5a cells expressing B. floridae CRZR2 (with Gαqi9); assay type: cell-based
# T3 sequence (C4N9P5 1-421): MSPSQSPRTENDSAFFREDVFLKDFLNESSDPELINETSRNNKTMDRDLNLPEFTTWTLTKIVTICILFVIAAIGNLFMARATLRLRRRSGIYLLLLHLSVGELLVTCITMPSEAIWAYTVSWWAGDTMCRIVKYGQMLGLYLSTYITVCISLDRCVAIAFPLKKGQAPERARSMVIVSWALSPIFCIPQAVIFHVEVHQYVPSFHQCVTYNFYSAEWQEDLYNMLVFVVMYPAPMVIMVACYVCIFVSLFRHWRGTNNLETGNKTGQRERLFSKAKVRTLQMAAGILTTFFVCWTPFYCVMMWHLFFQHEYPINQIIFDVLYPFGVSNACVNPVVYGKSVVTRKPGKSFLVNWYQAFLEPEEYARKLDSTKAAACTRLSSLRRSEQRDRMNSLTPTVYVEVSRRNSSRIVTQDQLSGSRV
# Excerpt: as §1
# Five millimoles of stock solutions of all peptides were first prepared in 50% Dimethyl sulfoxide. […] These receptors were codon-optimized for mammalian cell lines, synthesized and cloned into pcDNA3.4(+) vector by Genscript synthesis services. A 5′ partial Kozak translation initiation sequence (CCACC) was also included to improve expression. The codon-optimized receptor sequences are provided in supplementary file 9, Supplementary Material online. HEK293-G5a (Angio-proteomie CAT no. cAP-0200GFP-AEQ-Cyto) cells were cultured in 96 well-plates containing 100 μl of Dublecco’s Modified Eagle medium (DMEM; Thermo; Cat. No. 10566016) supplemented with 10% foetal bovine serum (Thermo; Cat. No. 10082147). The plates were kept in an incubator at 37°C and 5% CO2. […] The cells were incubated for 2 h and then used for the luminescence assay. […] Luminescence levels were recorded and integrated over a 65-s measurement period in a FlexStation 3 Multi-Mode Microplate Reader (Molecular Devices). […]
# [5] = molecular target: T4, B. floridae GnRHR1 (Branchiostoma floridae, UniProt C0IP19); experiment: Luminescence response in HEK293-G5a cells expressing B. floridae GnRHR1 (with Gαqi9); assay type: cell-based
# T4 sequence (C0IP19 1-403): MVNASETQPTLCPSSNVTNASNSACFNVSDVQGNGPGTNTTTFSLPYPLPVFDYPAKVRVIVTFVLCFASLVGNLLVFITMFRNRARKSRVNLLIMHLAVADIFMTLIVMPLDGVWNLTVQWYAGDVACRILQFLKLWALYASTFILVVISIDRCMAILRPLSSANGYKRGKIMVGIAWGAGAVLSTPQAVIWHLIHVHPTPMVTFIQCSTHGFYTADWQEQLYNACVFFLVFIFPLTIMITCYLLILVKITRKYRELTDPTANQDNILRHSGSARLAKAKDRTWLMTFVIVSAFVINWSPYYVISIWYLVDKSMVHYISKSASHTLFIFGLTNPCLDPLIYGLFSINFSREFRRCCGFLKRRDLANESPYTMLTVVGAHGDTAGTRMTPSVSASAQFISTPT
# Excerpt: as §1, §2
# [6] = molecular target: T5, B. floridae CRZR3 (Branchiostoma floridae, UniProt A0A9J7HT38); experiment: Luminescence response in HEK293-G5a cells expressing B. floridae CRZR3 (with Gαqi9); assay type: cell-based; conditions: for EC50: fig. 2D, HEK293-G5a, Gαqi9, 10^−4 M to 10^−12 M in DMEM, luminescence integrated over 65 s, normalized to maximum response, four-parameter curve, minimum of two independent transfections, read-out: EC50 values for the dose–response curves, CRZR3
# T5 sequence (A0A9J7HT38 1-394): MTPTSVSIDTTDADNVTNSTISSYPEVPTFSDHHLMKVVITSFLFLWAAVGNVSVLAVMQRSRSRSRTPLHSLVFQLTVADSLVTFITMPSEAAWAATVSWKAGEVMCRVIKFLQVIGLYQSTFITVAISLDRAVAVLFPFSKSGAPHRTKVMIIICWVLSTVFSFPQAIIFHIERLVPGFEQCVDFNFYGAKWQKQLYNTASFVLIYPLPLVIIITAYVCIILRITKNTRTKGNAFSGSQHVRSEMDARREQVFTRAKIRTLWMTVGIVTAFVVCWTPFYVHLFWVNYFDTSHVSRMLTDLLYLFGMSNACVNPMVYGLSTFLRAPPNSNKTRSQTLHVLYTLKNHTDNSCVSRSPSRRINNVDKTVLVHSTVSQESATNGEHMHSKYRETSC
# Excerpt: as §1
# Five millimoles of stock solutions of all peptides were first prepared in 50% Dimethyl sulfoxide. […] These receptors were codon-optimized for mammalian cell lines, synthesized and cloned into pcDNA3.4(+) vector by Genscript synthesis services. A 5′ partial Kozak translation initiation sequence (CCACC) was also included to improve expression. The codon-optimized receptor sequences are provided in supplementary file 9, Supplementary Material online. HEK293-G5a (Angio-proteomie CAT no. cAP-0200GFP-AEQ-Cyto) cells were cultured in 96 well-plates containing 100 μl of Dublecco’s Modified Eagle medium (DMEM; Thermo; Cat. No. 10566016) supplemented with 10% foetal bovine serum (Thermo; Cat. No. 10082147). The plates were kept in an incubator at 37°C and 5% CO2. Upon reaching 85% confluency, cells were co-transfected with plasmids encoding individual receptors or the empty pcDNA3.1 + vector (control), and the Gαqi9 promiscuous protein [Addgene; Cat. No. 125711 {[Masharina et al. 2012]}], as described previously ([Yañez-Guerra et al. 2022]). Transfections were carried out with 60 ng of each plasmid and 0.45 μl of the transfection reagent Transfectamine 5,000 (AAT-bioquest; Cat. No. 60022) per well. Two days post-transfection, the media was replaced with fresh DMEM medium supplemented with […] coelenterazine-H (Thermo Fisher Scientific; Cat. No. C6780). The cells were incubated for 2 h and then used for the luminescence assay. Various concentrations of the three synthetic peptides ranging from 10^−4 M to 10^−12 M were prepared in DMEM media and tested on the cells. Luminescence levels were recorded and integrated over a 65-s measurement period in a FlexStation 3 Multi-Mode Microplate Reader (Molecular Devices). A minimum of two independent transfections (biological replicates) for each receptor and two–three technical replicates for each peptide concentration were performed. The responses were normalized to the maximum response obtained following the addition of peptide in each experiment (100% activation) and to the response obtained with the vehicle media (0% activation). Normalized data from the independent transfections was used to plot the dose–response curves (fitted with a four-parameter curve) using the package drc in R ([Ritz et al. 2015]). The raw data for the emtpy-vector control and receptor characterization are provided in supplementary files 10 and 11, Supplementary Material online, respectively. The script used for the dose–response curve analysis is available on Github (https://github.com/Imnotabioinformatician/Branchiostoma_Dose_response_curves).
Compound,"activation of GnRHR2 (in words) ([1]; HEK293-G5a cells, luminescence)",activation of one of the two CRZ-like receptors (in words) [2],"EC50 for the response, CRZR1 (in words) [3]",activation of CRZR1 (in words) [3],"EC50 for the response, CRZR2 (in words) [4]",activation of CRZR2 (in words) [4],"activation of GnRHR1 (in words) ([5]; HEK293-G5a cells, luminescence)","EC50 for the response, CRZR3 (in words) ([6]; HEK293-G5a cells, luminescence)","activation of CRZR3 (in words) ([6]; HEK293-G5a cells, luminescence)",EC50 [6] [nM],"EC50 for the response, GnRHR2 (in words) ([1]; HEK293-G5a cells, luminescence)","EC50 ([1]; fig. 2D, HEK293-G5a, Gαqi9, 10^−4 M to 10^−12 M in DMEM, luminescence integrated over 65 s, normalized to maximum response, four-parameter curve, minimum of two independent transfections, read-out: EC50 values for the dose–response curves, GnRHR2) [nM]","EC50 for the response, GnRHR1 (in words) ([5]; HEK293-G5a cells, luminescence)","EC50 ([5]; fig. 2D, HEK293-G5a, Gαqi9, 10^−4 M to 10^−12 M in DMEM, luminescence integrated over 65 s, normalized to maximum response, four-parameter curve, minimum of two independent transfections, read-out: EC50 values for the dose–response curves, GnRHR1) [nM]"
CC[C@H](C)[C@H](NC(=O)[C@@H]1CCC(=O)N1)C(=O)N[C@@H](CC(C)C)C(=O)N[C@@H](CS)C(=O)N[C@@H](C)C(=O)N[C@@H](CCCNC(=N)N)C(=O)N[C@@H](C)C(=O)N[C@@H](Cc1ccccc1)C(=O)N[C@H](C(=O)N[C@@H](Cc1ccc(O)cc1)C(=O)N[C@H](C(=O)N[C@@H](Cc1c[nH]cn1)C(=O)N[C@H](C(=O)N[C@@H](Cc1c[nH]c2ccccc12)C(N)=O)[C@@H](C)O)[C@@H](C)O)[C@@H](C)O [CRZ-ext] ([pGlu]ILCARAFTYTHTW-NH2),Neither of these two receptors were activated,high nanomolar range,equally high,"all activated by CRZ, GnRH, and CRZ-ext; also recorded: also activated by CRZ-ext",high nanomolar range,"all activated by CRZ, GnRH, and CRZ-ext",Neither of these two receptors were activated,equally high,"all activated by CRZ, GnRH, and CRZ-ext; also recorded: also activated by CRZ-ext",950,,,,
"FTYTHTW-NH2 [CRZ, FTYTHTW-NH2]",,,,,,,,,,6.9,,,,
YSYSYGFAP-NH2,,,mid-to-low nanomolar physiological range,,,,,,,3800,low nanomolar range,2.2,low nanomolar range,3.2
